According to PubChem BioAssay AID248 (DTP/NCI, 2004):
Several values for one entry are separate records, joined by “and”; a condition that tells them apart may be missing. Equal entries are not always repeated. Inconclusive results and toxic doses are left out. No stated cut-off is given here; in the data, active means T/C of 150% or more; inactive means T/C below 125%.

Test system: L1210 leukemia ip in BDF1 mice, survival T/C
Assay: NCI In Vivo Anticancer Drug Screen. Data for tumor model L1210 Leukemia (intraperitoneal) in B6D2F1 (BDF1) mice
Details: endpoint: mean survival time, higher = longer survival
Method in brief: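 Ratio derived from survival: compound-dosed mice over vehicle-dosed mice, all bearing a transplantable tumor.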

[1] = dose: 100.0 mg/kg/injection, schedule: Q01DX001 (ip), vehicle: saline
[2] = dose: 200.0 mg/kg/injection, schedule: Q01DX001 (ip), vehicle: saline
[3] = dose: 400.0 mg/kg/injection, schedule: Q01DX001 (ip), vehicle: saline
[4] = dose: 100.0 mg/kg/injection, schedule: Q04DX003 (ip), vehicle: saline
[5] = dose: 100.0 mg/kg/injection, schedule: Q01DX009 (ip), vehicle: other

Measured: T/C

O=S1OCCS1 (stereo not given)
inactive: dose: 13.0 mg/kg/injection, schedule: Q01DX Z (sc), vehicle: saline 100 % of control | dose: 36.0 mg/kg/injection, schedule: Q01DX Z (sc), vehicle: saline 100 % of control

CCC1NCCc2cc(OC)c(O)cc21 (stereo not given)
inactive: dose: 75.0 mg/kg/injection, schedule: Q01DX001 (ip), vehicle: saline 106 % of control | dose: 150.0 mg/kg/injection, schedule: Q01DX001 (ip), vehicle: saline 100 % of control

S=c1nc2ccccn2c(=S)n1-c1ccccn1
inactive: dose: 100.0 mg/kg/injection, schedule: Q01DX001 (ip), vehicle: saline with Tween-80 106 % of control | dose: 200.0 mg/kg/injection, schedule: Q01DX001 (ip), vehicle: saline with Tween-80 100 % of control

O=C1C=CC(=C(c2ccccc2)c2ccccc2)C=C1
inactive: dose: 12.5 mg/kg/injection, schedule: Q01DX009 (ip), vehicle: Klucel (hydroxypropylcellulose) (HPC) 106 % of control | dose: 25.0 mg/kg/injection, schedule: Q01DX009 (ip), vehicle: Klucel (hydroxypropylcellulose) (HPC) 95 % of control | dose: 50.0 mg/kg/injection, schedule: Q01DX009 (ip), vehicle: Klucel (hydroxypropylcellulose) (HPC) 107 % of control | dose: 50.0 mg/kg/injection, schedule: Q01DX009 (ip), vehicle: saline 87 % of control | dose: 75.0 mg/kg/injection, schedule: Q04DX003 (ip), vehicle: saline 90 % of control | dose: 150.0 mg/kg/injection, schedule: Q04DX003 (ip), vehicle: saline 102 % of control

Cc1c2ccccc2cc2cc[n+]3ccccc3c12
inactive: dose: 1.0 mg/kg/injection, schedule: Q01DX015 (ip), vehicle: carboxymethylcellulose (CMC) 102 % of control | dose: 2.0 mg/kg/injection, schedule: Q01DX015 (ip), vehicle: carboxymethylcellulose (CMC) 104 % of control | dose: 4.0 mg/kg/injection, schedule: Q01DX015 (ip), vehicle: carboxymethylcellulose (CMC) 98 % of control | dose: 5.0 mg/kg/injection, schedule: Q01DX001 (ip), vehicle: carboxymethylcellulose (CMC) 101 % of control | dose: 8.0 mg/kg/injection, schedule: Q01DX015 (ip), vehicle: carboxymethylcellulose (CMC) 102 % of control and 119 % of control | dose: 10.0 mg/kg/injection, schedule: Q01DX001 (ip), vehicle: carboxymethylcellulose (CMC) 101 % of control | dose: 16.0 mg/kg/injection, schedule: Q01DX015 (ip), vehicle: carboxymethylcellulose (CMC) 111 % of control | dose: 20.0 mg/kg/injection, schedule: Q01DX001 (ip), vehicle: carboxymethylcellulose (CMC) 110 % of control | dose: 20.0 mg/kg/injection, schedule: Q04DX003 (ip), vehicle: Klucel (hydroxypropylcellulose) (HPC) 110 % of control | dose: 40.0 mg/kg/injection, schedule: Q01DX001 (ip), vehicle: carboxymethylcellulose (CMC) 117 % of control | dose: 40.0 mg/kg/injection, schedule: Q04DX003 (ip), vehicle: Klucel (hydroxypropylcellulose) (HPC) 114 % of control

CCOC(=O)c1c(/N=C/c2ccc(N(C)C)cc2)sc2c1CCCC2
inactive: dose: 100.0 mg/kg/injection, schedule: Q04DX002 (ip), vehicle: Klucel (hydroxypropylcellulose) (HPC) 107 % of control | dose: 200.0 mg/kg/injection, schedule: Q04DX002 (ip), vehicle: Klucel (hydroxypropylcellulose) (HPC) 100 % of control | dose: 400.0 mg/kg/injection, schedule: Q04DX002 (ip), vehicle: Klucel (hydroxypropylcellulose) (HPC) 104 % of control

CCC(N)C(=O)O (stereo not given)
inactive: [1] 108 % of control | [2] 102 % of control | [3] 94 % of control

COc1cc(C(C)S(=O)(=O)c2ccc(C)cc2)ccc1O (stereo not given)
inactive: dose: 100.0 mg/kg/injection, schedule: Q01DX001 (ip), vehicle: carboxymethylcellulose (CMC) 89 % of control | dose: 200.0 mg/kg/injection, schedule: Q01DX001 (ip), vehicle: carboxymethylcellulose (CMC) 93 % of control | dose: 400.0 mg/kg/injection, schedule: Q01DX001 (ip), vehicle: carboxymethylcellulose (CMC) 93 % of control

O=C(O)C(O)C(Br)C(=O)O (stereo not given)
inactive: dose: 50.0 mg/kg/injection, schedule: Q04DX003 (ip), vehicle: saline 95 % of control | [1] 95 % of control | [4] 104 % of control

O=C(C#Cc1ccccc1)OCC#Cc1ccccc1
inactive: [1] 102 % of control | [2] 96 % of control | [3] 94 % of control

CCCCCc1[nH]c(=O)[nH]c(=O)c1S(=O)(=O)N1CCCCC1
inactive: dose: 100.0 mg/kg/injection, schedule: Q01DX001 (ip), vehicle: Klucel (hydroxypropylcellulose) (HPC) 107 % of control | dose: 200.0 mg/kg/injection, schedule: Q01DX001 (ip), vehicle: Klucel (hydroxypropylcellulose) (HPC) 97 % of control | dose: 400.0 mg/kg/injection, schedule: Q01DX001 (ip), vehicle: Klucel (hydroxypropylcellulose) (HPC) 110 % of control

CCN(CC)CCN(C)C(=O)C1C(c2ccccc2)C1c1ccccc1 (stereo not given)
inactive: dose: 25.0 mg/kg/injection, schedule: Q04DX002 (ip), vehicle: Klucel (hydroxypropylcellulose) (HPC) 93 % of control | dose: 50.0 mg/kg/injection, schedule: Q04DX002 (ip), vehicle: Klucel (hydroxypropylcellulose) (HPC) 105 % of control

NC(=O)CC1(O)CCCCC1
inactive: [4] 114 % of control | dose: 200.0 mg/kg/injection, schedule: Q04DX003 (ip), vehicle: saline 97 % of control | dose: 400.0 mg/kg/injection, schedule: Q04DX003 (ip), vehicle: saline 97 % of control

CN(CCN(CCCl)c1ccc(N)cc1)c1ccc(N)cc1
inactive: dose: 10.0 mg/kg/injection, schedule: Q04DX003 (ip), vehicle: saline 110 % of control | dose: 20.0 mg/kg/injection, schedule: Q04DX003 (ip), vehicle: saline 110 % of control | dose: 40.0 mg/kg/injection, schedule: Q04DX003 (ip), vehicle: saline 93 % of control

CC(=O)NS(=O)(=O)c1ccc(N=Cc2cc(Cl)cc(Cl)c2O)cc1
inactive: dose: 100.0 mg/kg/injection, schedule: Q01DX009 (ip), vehicle: saline 111 % of control | dose: 200.0 mg/kg/injection, schedule: Q01DX009 (ip), vehicle: saline 102 % of control | dose: 400.0 mg/kg/injection, schedule: Q01DX009 (ip), vehicle: saline 102 % of control

FC(F)(F)C(c1ccc(Cl)cc1)c1ccc(Cl)cc1
inactive: dose: 10.0 mg/kg/injection, schedule: Q01DX009 (ip), vehicle: saline with Tween-80 105 % of control | dose: 20.0 mg/kg/injection, schedule: Q01DX009 (ip), vehicle: saline with Tween-80 89 % of control | dose: 40.0 mg/kg/injection, schedule: Q01DX009 (ip), vehicle: saline with Tween-80 97 % of control | dose: 50.0 mg/kg/injection, schedule: Q01DX001 (ip), vehicle: saline 103 % of control | [1] 97 % of control | [5] 97 % of control | dose: 100.0 mg/kg/injection, schedule: Q04DX003 (ip), vehicle: saline with Tween-80 103 % of control | [2] 97 % of control | dose: 200.0 mg/kg/injection, schedule: Q04DX003 (ip), vehicle: saline with Tween-80 102 % of control | [3] 103 % of control | dose: 400.0 mg/kg/injection, schedule: Q04DX003 (ip), vehicle: saline with Tween-80 100 % of control

CCCCCCCCCC(=O)CCCCC
inactive: [5] 100 % of control | dose: 200.0 mg/kg/injection, schedule: Q01DX009 (ip), vehicle: other 98 % of control | dose: 400.0 mg/kg/injection, schedule: Q01DX009 (ip), vehicle: other 93 % of control

O=C(O)CNS(=O)(=O)c1ccccc1
inactive: dose: 100.0 mg/kg/injection, schedule: Q01DX009 (ip), vehicle: carboxymethylcellulose (CMC) 97 % of control | dose: 200.0 mg/kg/injection, schedule: Q01DX009 (ip), vehicle: carboxymethylcellulose (CMC) 101 % of control | dose: 400.0 mg/kg/injection, schedule: Q01DX009 (ip), vehicle: carboxymethylcellulose (CMC) 89 % of control

Cc1ccc(S(=O)(=O)CC(=O)c2ccccc2)cc1
inactive: dose: 100.0 mg/kg/injection, schedule: Q04DX003 (ip), vehicle: Klucel (hydroxypropylcellulose) (HPC) 100 % of control | dose: 200.0 mg/kg/injection, schedule: Q04DX003 (ip), vehicle: Klucel (hydroxypropylcellulose) (HPC) 107 % of control | dose: 400.0 mg/kg/injection, schedule: Q04DX003 (ip), vehicle: Klucel (hydroxypropylcellulose) (HPC) 102 % of control

NC(=S)N/N=C/c1ccc(C(F)(F)F)cn1
inactive: dose: 13.3 mg/kg/injection, schedule: Q04DX003 (ip), vehicle: saline with Tween-80 108 % of control | dose: 20.0 mg/kg/injection, schedule: Q04DX003 (ip), vehicle: saline with Tween-80 103 % of control | dose: 30.0 mg/kg/injection, schedule: Q04DX003 (ip), vehicle: saline with Tween-80 113 % of control | dose: 45.0 mg/kg/injection, schedule: Q04DX003 (ip), vehicle: saline with Tween-80 112 % of control | dose: 67.5 mg/kg/injection, schedule: Q04DX003 (ip), vehicle: saline with Tween-80 111 % of control

CC12CCC(=O)CC1CCC1C2CCC2(C)C(C(=O)O)CCC12 (stereo not given)
inactive: dose: 25.0 mg/kg/injection, schedule: Q04DX002 (ip), vehicle: saline with Tween-80 99 % of control | dose: 50.0 mg/kg/injection, schedule: Q04DX002 (ip), vehicle: saline with Tween-80 96 % of control | dose: 100.0 mg/kg/injection, schedule: Q04DX002 (ip), vehicle: saline with Tween-80 108 % of control
